One assay deals with C3aR. The note with it: cited from earlier work.
In another assay the test system is human C3aR. The experiment in a line: Transducer-coupling assays taken together. In kind it is cell-based.
The next assay relates to mouse C3aR. The experiment in a line: Transducer-coupling assays taken together. In kind it is cell-based.

Take “C3a^-d-Arg: C3a with terminal arginine removed by carboxypeptidases; species not stated”: in the assay on C3aR (ref [25],[30],[67]), the “activity at human and mouse C3aR” value is “very weak activity”.

For `NC(N)=NCCC[C@H](NC(=O)COCC(c1ccccc1)c1ccccc1)C(=O)O` [SB290157, reference compound], in the assay on human C3aR (compared to C3a), the “agonist profile, G-protein activation” value is listed as “partial agonist profile” and the βarr recruitment response entry is “weak response in βarr recruitment”. The “activation of mouse C3aR” value in the assay on mouse C3aR (G protein activation or β-arrestin recruitment) is listed as “did not activate mouse C3aR”. Further, in the assay with C3aR (various cellular assays, ref [45]-[47]), the agonistic activity entry was “agonistic activity”.

Take “mC3a-d-Arg: mouse C3a with terminal arginine removed”: the activity entry in the assay with mouse C3aR (mouse C3aR) was “weak but measurable activity”.

As for “mC3a: full-length recombinant mouse complement anaphylatoxin C3a (S1-R78), expressed in E. coli”, the efficacy entry with human C3aR is reported as “full agonists”. Further, the “potency and efficacy, human vs. mouse C3a” value with mouse C3aR (mouse C3aR) was “equally potent and efficacious”.

“hC3a: full-length recombinant human complement anaphylatoxin C3a, natural agonist of C3aR, expressed in E. coli”: in the assay on human C3aR, the efficacy result is given as “full agonists” and the “potency, human vs. mouse C3a” value was “more potent”. In addition, in the assay on mouse C3aR (mouse C3aR), the “potency and efficacy, human vs. mouse C3a” value was “equally potent and efficacious”.

Source of the values: PMC13635228 (Nature Communications, 2026).
